Data on 1 molecule can be found in patent US7186751B2, “Injectable composition of paclitaxel” (priority 2001, dated 2007).

Data set [1] deals with rat. To be noted: ratio of LD50 in rat. The text has this:
The common stabilizer has danger in the safety in case of excessive use.

For data set [2], the system named is rat. Conditions: cited from earlier work.

As for `CC(=O)N[C@@H](CS)C(=O)O` [N-acetyl cysteine], in the data set with rat [1], the “Lower toxicity than citric acid” value was found to be 90 times. Besides, in the data set with rat [2], the LD50 is recorded as 3600 mg/kg.

By LD50 is commonly meant the dose expected to kill half of the subjects tested.
